Experimental data reported in patent US9649308B2, “Benzamide-containing compounds and their use in the treatment of pain” (H. Lundbeck A/S, priority 2012, dated 2017).

Target: human P2X7 receptor (Homo sapiens (Human), UniProt Q99572)
Assay: P2X7 FLIPR antagonist assay (BzATP-stimulated, 293 HEK cells stably expressing P2X7 receptor)
Assay type: cell-based
Conditions: Table 1, exemplified IC50 values; antagonist activity vs BzATP
Protocol: This example illustrates representative assays for use in evaluating the test compounds for antagonist activity. Compounds of the present invention were tested in vitro for their ability to act as antagonists to the P2X7 receptor.
Cells were plated to cell density of approximately 15,000 cells/well in 384-well assay plates (50 μl/well) with 1.5% low serum media (DMEM, 1.5% BCS, 1% L-glut (2 mM), 1% P/S).
Cells were plated to cell density of approximately 15,000 cells/well in 384-well assay plates (50 μl/well) with 1.5% low serum media (DMEM, 1.5% FBS, 1% L-glut (2 mM), 10 mM HEPES, 1% P/S). Cells were plated 24 hours prior to assay. Cells expressing human, rat or mouse P2X7 receptor were assayed in the following manner.
Fluo-4 NW dye mix (Molecular Probes, Inc., Eugene, Oreg., USA) was prepared in buffer (see manufacturer's instructions). Cell plates were removed from the 37° C. incubator, the media discarded and then 30 μL of dye was added to each well. Plates were placed in the 37° C., non-CO2 incubator for 30 minutes and then room temperature for 30 minutes.
B) Agonist only mixture was prepared with BzATP at a single concentration in buffer (concentration determined by dose response).
Compound mixtures (A) were added to assay plates containing cells and placed at room temperature for 30 minutes, then BzATP (B) was added. Fluorescence was read using the Tetra FLIPR® (Molecular Devices, Inc., Sunnyvale, Calif., USA) and IC50 values were calculated by standard methods to determine antagonist activity.

Chain of human P2X7 receptor (Q99572 whole entry): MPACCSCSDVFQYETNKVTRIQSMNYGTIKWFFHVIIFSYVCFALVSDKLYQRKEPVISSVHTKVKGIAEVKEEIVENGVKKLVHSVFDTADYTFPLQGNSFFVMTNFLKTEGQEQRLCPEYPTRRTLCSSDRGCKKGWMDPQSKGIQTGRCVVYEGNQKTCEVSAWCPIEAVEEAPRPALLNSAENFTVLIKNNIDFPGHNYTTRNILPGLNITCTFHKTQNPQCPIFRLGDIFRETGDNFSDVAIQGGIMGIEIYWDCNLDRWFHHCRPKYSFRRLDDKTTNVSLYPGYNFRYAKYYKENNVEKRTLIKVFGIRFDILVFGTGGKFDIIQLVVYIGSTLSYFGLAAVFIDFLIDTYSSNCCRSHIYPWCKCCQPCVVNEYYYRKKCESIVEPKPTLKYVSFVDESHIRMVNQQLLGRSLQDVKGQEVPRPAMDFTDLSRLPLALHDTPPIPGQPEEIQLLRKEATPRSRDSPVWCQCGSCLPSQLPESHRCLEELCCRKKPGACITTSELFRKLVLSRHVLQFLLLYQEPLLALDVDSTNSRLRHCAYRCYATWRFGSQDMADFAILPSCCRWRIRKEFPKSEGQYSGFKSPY

Row | SMILES | IC50 [nM]
1 | Cc1ncc(C(CNC(=O)c2cccc(Cl)c2Cl)c2ccncc2)cn1 (stereo not shown) [2,3-dichloro-N-[2-(2-methylpyrimidin-5-yl)-2-(4-pyridyl)ethyl]benzamide] | 50
2 | Cc1ncc(C(CNC(=O)c2cccc(Cl)c2Cl)C2CCC(F)(F)CC2)cn1 (single isomer, unassigned; (-)) [(−)2,3-dichloro-N-[2-(4,4-difluorocyclohexyl)-2-(2-methylpyr] [(−)2,3-dichloro-N-[2-(4,4-difluorocyclohexyl)-2-(2-methylpyrimidin-5-yl)ethyl]benzamide] | 16
3 | Cc1ncc(C2(C(C)NC(=O)c3c(F)cccc3Cl)CCOCC2)cn1 (stereo not shown) [2-chloro-6-fluoro-N-[1-[4-(2-methylpyrimidin-5-yl)tetrahydropyran-4-yl]ethyl]benzamide] | 55
4 | O=C(NCC(CC1CC1)c1ccc(C(F)F)nc1)c1cccc(Cl)c1Cl (single isomer, unassigned; (-)) [(−)2,3-dichloro-N-[3-cyclopropyl-2-[6-(difluoromethyl)-3-pyr] [(−)2,3-dichloro-N-[3-cyclopropyl-2-[6-(difluoromethyl)-3-pyridyl]propyl]benzamide] | 1.9
5 | Cc1ncc(C(CNC(=O)c2c(F)cccc2Cl)c2ccncc2)cn1 (stereo not shown) [2-chloro-6-fluoro-N-[2-(2-methylpyrimidin-5-yl)-2-(4-pyridyl)ethyl]benzamide] | 640
6 | O=C(NCC1(c2cnc(C(F)(F)F)nc2)CCOCC1)c1ccccc1Cl [2-chloro-N-[[4-[2-(trifluoromethyl)pyrimidin-5-yl]tetrahydropyran-4-yl]methyl]benzamide] | 4400
7 | Cc1ncc(C(CNC(=O)c2cccc(Cl)c2Cl)C2CCC(F)(F)CC2)cn1 (single isomer, unassigned; (+)) [(+)2,3-dichloro-N-[2-(4,4-difluorocyclohexyl)-2-(2-methylpyr] [(+)2,3-dichloro-N-[2-(4,4-difluorocyclohexyl)-2-(2-methylpyrimidin-5-yl)ethyl]benzamide] | 8.4
